Experimental data reported in patent US5024994A, “Renin inhibitors IV” (Warner-Lambert Company, priority 1988, dated 1991).

Each molecule was assayed against T1, renin (Homo sapiens, UniProt P00797) (assay: in vitro renin inhibitory activity, radioimmunoassay for angiotensin I). Settings: not given.
T1 sequence (P00797 67-406): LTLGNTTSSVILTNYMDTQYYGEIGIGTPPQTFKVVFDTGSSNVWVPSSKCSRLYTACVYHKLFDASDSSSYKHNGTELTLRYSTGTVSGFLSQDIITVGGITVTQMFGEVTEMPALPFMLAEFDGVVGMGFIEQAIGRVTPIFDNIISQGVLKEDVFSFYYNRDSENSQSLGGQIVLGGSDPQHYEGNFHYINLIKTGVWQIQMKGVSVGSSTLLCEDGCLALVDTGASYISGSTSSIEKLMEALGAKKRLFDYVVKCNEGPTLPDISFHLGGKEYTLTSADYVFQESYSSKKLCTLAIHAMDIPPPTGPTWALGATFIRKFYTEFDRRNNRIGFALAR
Assay type: biochemical
Description: The effectiveness of the aforementioned compounds is determined by a test for in vitro renin inhibitory activity. This activity is determined by a standard radioimmunoassay for angiotensin I. In this assay the enzyme, renin, incubated for two hours at 37° in the presence of a substrate, angiotensinogen, generates the product, angiotensin I. Test compounds are added to the incubation mixture.
`CCC(C)CNC(=O)C[C@H](O)[C@H](CC(C)C)NC(=O)[C@H](CCCCNP(=O)(Oc1ccccc1)Oc1ccccc1)NC(=O)C(Cc1cccc2ccccc12)Cc1cccc2ccccc12` (stereo partly shown) gave an IC50 of 7400 nM.
Molecule `CCC(C)CNC(=O)C[C@H](O)[C@H](CC(C)C)NC(=O)[C@H](CCCCNC(=NC#N)SC)NC(=O)C(Cc1cccc2ccccc12)Cc1cccc2ccccc12` (stereo partly shown) has an IC50 of 19 nM.
`CC[C@H](C)CNC(=O)C[C@H](O)[C@H](CC(C)C)NC(=O)[C@H](CCCCn1cccc1)NC(=O)C(Cc1cccc2ccccc12)Cc1cccc2ccccc12` was tested, and the IC50 was 87 nM.
`CC(C)C[C@H](NC(=O)C[C@H](O)[C@H](CC(C)C)NC(=O)[C@H](CCCCNC(=N)N[N+](=O)[O-])NC(=O)C(Cc1cccc2ccccc12)Cc1cccc2ccccc12)C(=O)NCc1ccccc1` was tested, and the IC50 was 15 nM.
`CNC(=S)NCCCC[C@H](NC(=O)C(Cc1cccc2ccccc12)Cc1cccc2ccccc12)C(=O)N[C@@H](CC(C)C)[C@@H](O)CC(=O)N[C@@H](CC(C)C)C(=O)NCc1ccccc1` showed an IC50 of 60 nM.
`CCC(C)CNC(=O)C[C@H](O)[C@H](CC(C)C)NC(=O)C(CCCCCNC(=N)N[N+](=O)[O-])NC(=O)C(Cc1cccc2ccccc12)Cc1cccc2ccccc12` (stereo partly shown) showed an IC50 of 26 nM.
`CC(C)C[C@H](NC(=O)C[C@H](O)[C@H](CC(C)C)NC(=O)C(CCCCCNC(=N)N[N+](=O)[O-])NC(=O)C(Cc1cccc2ccccc12)Cc1cccc2ccccc12)C(=O)NCc1ccccc1` (stereo partly shown) gave an IC50 of 110 nM.
With `CC[C@H](C)CNC(=O)C[C@H](O)[C@H](CC(C)C)NC(=O)C(CCCCCCNC(=S)NC)NC(=O)C(Cc1cccc2ccccc12)Cc1cccc2ccccc12` (stereo partly shown) the IC50 was 45 nM.
Work on `CC[C@H](C)CNC(=O)C[C@H](O)[C@H](CC(C)C)NC(=O)C(CC#CCNC(=O)OCc1ccccc1)NC(=O)C(Cc1cccc2ccccc12)Cc1cccc2ccccc12` (stereo partly shown) yielded an IC50 of 150 nM.
Molecule `CC[C@H](C)CNC(=O)C[C@H](O)[C@H](CC(C)C)NC(=O)C(NC(=O)C(Cc1cccc2ccccc12)Cc1cccc2ccccc12)C(=O)OC` (stereo partly shown) has an IC50 of 23 nM.
`CCC(C)CNC(=O)C[C@H](O)[C@H](CC(C)C)NC(=O)C(NC(=O)C(CC(=O)N1CCOCC1)Cc1cccc2ccccc12)C(=O)OC` (stereo partly shown) was tested, and the IC50 was 98 nM.
Molecule `CNC(=S)NCCCC[C@H](NC(=O)C(Cc1ccccc1)CS(=O)(=O)C(C)(C)C)C(=O)N[C@@H](CC1CCCCC1)[C@@H](O)CC(=O)NCCN1CCOCC1` (stereo partly shown) has an IC50 of 27 nM.
With `CCC(C)CNC(=O)C[C@H](O)[C@H](CC(C)C)NC(=O)C(C/C=C/CNC(=S)NC)NC(=O)C(Cc1cccc2ccccc12)Cc1cccc2ccccc12` (stereo partly shown) the IC50 was 41 nM.
Molecule `CC[C@H](C)CNC(=O)C[C@H](O)[C@H](CC(C)C)NC(=O)C(NC(=O)[C@H](Cc1ccccc1)NC(=O)OC(C)(C)C)C(=O)N1CCCC1` (stereo partly shown) has an IC50 of 400 nM.
Molecule `CCC(C)CNC(=O)C[C@H](O)[C@H](CC(C)C)NC(=O)[C@H](CC#N)NC(=O)[C@H](Cc1ccccc1)NC(=O)OC(C)(C)C` (stereo partly shown) has an IC50 of 260 nM.

Same assay, conditions: at 10^-6 molar concentration; read-out: percent inhibition of renin activity
`CC[C@H](C)CNC(=O)C[C@H](O)[C@H](CC(C)C)NC(=O)C(CCCCCCNC(=O)OCc1ccccc1)NC(=O)C(Cc1cccc2ccccc12)Cc1cccc2ccccc12` (stereo partly shown) gave an inhibition at 1 µM of 28%.
Work on `CC[C@H](C)CNC(=O)C[C@H](O)[C@H](CC(C)C)NC(=O)C(NC(=O)C(Cc1cccc2ccccc12)Cc1cccc2ccccc12)C(N)=O` (stereo partly shown) yielded an inhibition at 1 µM of 24%.
With `CC[C@H](C)CNC(=O)C[C@H](O)[C@H](CC(C)C)NC(=O)C(NC(=O)C(Cc1cccc2ccccc12)Cc1cccc2ccccc12)C(=O)NC` (stereo partly shown) the inhibition at 1 µM was 26%.

Same assay, conditions: read-out: IC50
In the case of `CC[C@H](C)CNC(=O)C[C@H](O)[C@H](CC(C)C)NC(=O)[C@H](CCCCNC(=S)NC)NC(=O)C(Cc1cccc2ccccc12)Cc1cccc2ccccc12`, the IC50 is reported as 9.6 nM.
`CCC(C)CNC(=O)C[C@H](O)[C@H](CC(C)C)NC(=O)[C@H](CCCCNC(=O)NC)NC(=O)C(Cc1cccc2ccccc12)Cc1cccc2ccccc12` (stereo partly shown) gave an IC50 of 29 nM.
`CCCCNC(=S)NCCCC[C@H](NC(=O)C(Cc1cccc2ccccc12)Cc1cccc2ccccc12)C(=O)N[C@@H](CC(C)C)[C@@H](O)CC(=O)NC[C@@H](C)CC` showed an IC50 of 46 nM.
With `CCCCNC(=S)NCCCC[C@H](NC(=O)C(Cc1cccc2ccccc12)Cc1cccc2ccccc12)C(=O)N[C@@H](CC(C)C)[C@@H](O)CC(=O)NCC(C)CC` (stereo partly shown) the IC50 was 58 nM.
Molecule `CC[C@H](C)CNC(=O)C[C@H](O)[C@H](CC(C)C)NC(=O)[C@H](CCCCNC(=S)NCC(C)(C)C)NC(=O)C(Cc1cccc2ccccc12)Cc1cccc2ccccc12` has an IC50 of 450 nM.
`CCC(C)CNC(=O)C[C@H](O)[C@H](CC(C)C)NC(=O)[C@H](CCCCNC(=S)NC(C)(C)CC)NC(=O)C(Cc1cccc2ccccc12)Cc1cccc2ccccc12` (stereo partly shown) was tested, and the IC50 was 7.5 nM.
For `CCC(C)CNC(=O)C[C@H](O)[C@H](CC1CCCCC1)NC(=O)[C@H](CCCCNC(=N)N[N+](=O)[O-])NC(=O)C(Cc1cccc2ccccc12)Cc1cccc2ccccc12` (stereo partly shown), the IC50 was 15 nM.
For `CCC(C)CNC(=O)C[C@H](O)[C@H](CC(C)C)NC(=O)[C@H](CCCCNC(N)=NC#N)NC(=O)C(Cc1cccc2ccccc12)Cc1cccc2ccccc12` (stereo partly shown), the IC50 was 18 nM.
With `CCC(C)CNC(=O)C[C@H](O)[C@H](CC(C)C)NC(=O)[C@H](CCCCNC(=NC#N)NC)NC(=O)C(Cc1cccc2ccccc12)Cc1cccc2ccccc12` (stereo partly shown) the IC50 was 15 nM.
In the case of `CCC(C)CNC(=O)C[C@H](O)[C@H](CC(C)C)NC(=O)[C@H](CCCCn1cccc1)NC(=O)C(Cc1cccc2ccccc12)Cc1cccc2ccccc12` (stereo partly shown), the IC50 is reported as 540 nM.
`CNC(=O)NCCCC[C@H](NC(=O)C(Cc1cccc2ccccc12)Cc1cccc2ccccc12)C(=O)N[C@@H](CC(C)C)[C@@H](O)CC(=O)N[C@@H](CC(C)C)C(=O)NCc1ccccc1` was tested, and the IC50 was 84 nM.
Molecule `CCC(C)CNC(=O)C[C@H](O)[C@H](CC(C)C)NC(=O)C(CCCCCNC(=O)OCc1ccccc1)NC(=O)C(Cc1cccc2ccccc12)Cc1cccc2ccccc12` (stereo partly shown) has an IC50 of 290 nM.
In the case of `CCC(C)CNC(=O)C[C@H](O)[C@H](CC(C)C)NC(=O)C(CCCCCNC(=S)NC)NC(=O)C(Cc1cccc2ccccc12)Cc1cccc2ccccc12` (stereo partly shown), the IC50 is reported as 40 nM.
With `CC[C@H](C)CNC(=O)C[C@H](O)[C@H](CC(C)C)NC(=O)C(CCCCCCNC(N)=NC#N)NC(=O)C(Cc1cccc2ccccc12)Cc1cccc2ccccc12` (stereo partly shown) the IC50 was 45 nM.
In the case of `CC(C)C[C@H](NC(=O)C[C@H](O)[C@H](CC(C)C)NC(=O)C(CCCCCCNC(=O)OCc1ccccc1)NC(=O)C(Cc1cccc2ccccc12)Cc1cccc2ccccc12)C(=O)NCc1ccccc1` (stereo partly shown), the IC50 is reported as 59 nM.
With `CC[C@H](C)CNC(=O)C[C@H](O)[C@H](CC(C)C)NC(=O)[C@H](CCCNC(=S)NC)NC(=O)C(Cc1cccc2ccccc12)Cc1cccc2ccccc12` the IC50 was 280 nM.
`CC[C@H](C)CNC(=O)C[C@H](O)[C@H](CC(C)C)NC(=O)[C@H](CCCNC(=O)NC)NC(=O)C(Cc1cccc2ccccc12)Cc1cccc2ccccc12` was tested, and the IC50 was 890 nM.
In the case of `CC[C@H](C)CNC(=O)C[C@H](O)[C@H](CC(C)C)NC(=O)[C@H](CCCCNC(N)=O)NC(=O)C(Cc1cccc2ccccc12)Cc1cccc2ccccc12`, the IC50 is reported as 50 nM.
In the case of `CC[C@H](C)CNC(=O)C[C@H](O)[C@H](CC(C)C)NC(=O)C(NC(=O)[C@H](Cc1ccccc1)NC(=O)OC(C)(C)C)C(=O)OC` (stereo partly shown), the IC50 is reported as 41 nM.
In the case of `CC[C@H](C)CNC(=O)C[C@H](O)[C@H](CC(C)C)NC(=O)C(NC(=O)C(Cc1cccc2ccccc12)Cc1cccc2ccccc12)C(=O)NCCc1cnc[nH]1` (stereo partly shown), the IC50 is reported as 3100 nM.
`CC[C@H](C)CNC(=O)C[C@H](O)[C@H](CC(C)C)NC(=O)C(NC(=O)C(Cc1cccc2ccccc12)Cc1cccc2ccccc12)C(=O)N(C)C` (stereo partly shown) gave an IC50 of 200 nM.
For `CC[C@H](C)CNC(=O)C[C@H](O)[C@H](CC(C)C)NC(=O)C(Cc1nc2ccccc2[nH]1)NC(=O)C(Cc1cccc2ccccc12)Cc1cccc2ccccc12` (stereo partly shown), the IC50 was 2800 nM.
